Measured values published in patent US8815946B2, “Inhibition of proliferation and fibrotic response of activated corneal stromal cells” (University of Pittsburgh—of the Commonwealth System of …, priority 2008, dated 2014).

Experiments:
[1] = system: human corneal stromal cells; assay: Toxicity to cultured human corneal stromal cells; assay type: cell-based; conditions: possibly due to low pH of the culture medium
Procedure: Higher than 20 mM concentrations were toxic to the cells, possibly due to the low pH of the culture medium resulting from high EP concentrations.

cornea = assay: Mouse corneal wound healing and LPS inflammation model, confocal microscopy of corneal thickness and morphology; assay type: in vivo, Mus musculus strain C57
Source text: A mouse model of corneal wound healing and inflammation induced by lipopolysacharide (LPS) was used to test the effect of EP. Khatari et al., Invest. Opthalmol. Vis. Sci. (2002) 43:2278-2284. Briefly, mice (Mus musculus strain C57, age approx. 2 months) were obtained from Charles River Laboratories in accordance with institutional protocols and divided into the following treatment groups (with 3 samples in each group):
Prior to wounding, all mice were anesthetized with an intraperitoneal injection of 50 mg/kg ketamine with 5 mg/kg xylazine. Topical anesthesia was further achieved with an additional 1 drop of 0.5% proparacaine per eye. Once the animal was sufficiently anesthetized, a corneal wound was constructed in each eye using a sterile 26-gauge needle that penetrated the epithelium and the superficial layers of the stroma. This linear scratch extended from the medial to lateral canthus (FIG. 12). 10 μg of the bacterial super-antigen LPS (Pseudomonas aeruginosa lipopolysaccharide, Sigma) was applied to the wound using a 10 μl pipette and allowed to penetrate the cornea for 5 minutes. Addition of bacterial endotoxin ensured a robust inflammatory response.
The wound was then washed with phosphate buffered saline (PBS/non-pyrogenic dH2O). Following the wash, the EP treatment groups received a 10 μl drop of 5% EP in PBS buffered to physiological pH with HEPES while the control group received PBS alone. Drops were applied to the corneal wound using a pipette and the mice were held by hand in such a way as to retain the drops on the eye for approximately 2 minutes. The delivery and concentration of EP was determined according to Devamanoharan et al. (1999); 200(1-2):103-09. […] Considering this quick absorption with the elimination half-life of EP, which is approximately 90 minutes, EP (500 mM) was applied every 90 minutes over the span of 12 hours during each day, followed by 12 hours of treatment overnight.
Animals were sacrificed and eyes harvested for analysis at 1 and 2 days post-wounding. After sacrificing, but prior to harvesting, eyes were imaged using the NIDEK CONFOSCAN 3® confocal microscope to analyze the morphology of the intact cornea. The images were later reconstructed into three-dimensional images in order to observe gross morphology, measure corneal thickness and light scattering which indicate edema and hypercellularity respectively.

Ki67 = Ki67 staining of activated rabbit corneal keratocytes; assay type: cell-based; conditions: bFGF (40 ng/ml)+HS (5 μg/ml), 15 mM EP, two days
Procedure: FIGS. 18A-18B. Rabbit corneal keratocytes were activated with bFGF (40 ng/ml)+HS (5 μg/ml) without EP (FIG. 18A) or with 15 mM EP (FIG. 18B) and after two days the cells were triple stained with anti-Ki67 antibodies (yellow), phalloidin (red, actin filaments) and DAPI (blue, nucleus).
As described in Example 1, corneal stromal cells were isolated from rabbit corneas and cultured using the same procedures. The keratocytes in serum free media were treated with b-FGF (40 ng/ml)+HS (5 μg/ml) with or without 15 mM EP or 1, 2.5 or 5 mM following EP derivatives: 2-oxopropionic acid 3-methoxyphenyl ester, 2-oxopropionic acid 2-ethoxyethyl ester, 2-oxopropionic acid 2-chloroethyl ester, 2-oxopropionic acid isopropyl ester, 2-oxopropionic acid butyl ester, 2-oxopropionic acid p-tolyl ester, 2-oxopropionic acid tert-butyl ester. Two days following the treatments, the cells were fixed and stained for Ki67 (a nuclear antigen expressed during the G1/S or S phase of the cell cycle) as described supra. The relative levels of the expression of specific proteins were analyzed by Western blot analyses of the cell lysates as described supra.

[2] = 1 day post-wounding, topical 5% EP every 90 minutes

With CCOC(=O)C(C)=O [ethyl pyruvate] the “concentrations toxic to the cells” value [1] was “Higher than 20 mM”, the “light scattering within the stromal layer (qualitative)” value (cornea; 1 day post-wounding) was “dark and quiet stroma” and the stromal thickness (cornea; [2]) was 89-100 μm. The total corneal thickness (cornea; [2]) was 194-207 μm, the “corneal morphology / light scattering (qualitative)” value (cornea; 2 days post-wounding) was “normal in morphology” and the stromal thickness (cornea; 2 days post-wounding) was 80-85 μm. For the same compound, the total corneal thickness (cornea; 2 days post-wounding) was 142-154 μm and the “Ki67 positive cells (staining, qualitative)” value (Ki67) was “only a few Ki67 positive cells”.
